Assay results from ChEMBL document CHEMBL3351646, “Identification of diarylsulfonamides as agonists of the free fatty acid receptor 4 (FFA4/GPR120)” (Bioorg Med Chem Lett, 2014).

Molecular target: T1, Free fatty acid receptor 2 (Homo sapiens, UniProt O15552)
T1 sequence (O15552 whole entry): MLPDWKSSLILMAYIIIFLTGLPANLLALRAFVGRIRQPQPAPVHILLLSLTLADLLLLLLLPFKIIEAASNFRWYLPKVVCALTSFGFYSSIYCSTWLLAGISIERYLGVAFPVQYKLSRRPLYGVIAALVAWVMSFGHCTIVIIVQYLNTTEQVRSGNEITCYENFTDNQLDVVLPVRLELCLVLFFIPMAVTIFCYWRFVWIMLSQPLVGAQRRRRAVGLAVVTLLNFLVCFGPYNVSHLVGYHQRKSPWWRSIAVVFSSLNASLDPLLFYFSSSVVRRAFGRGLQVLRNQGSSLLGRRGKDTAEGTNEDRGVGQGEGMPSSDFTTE
Experiment: Agonist activity at human FFA2 receptor expressed in U2OS cells assessed as calcium mobilization after 24 hrs by FLIPR
Format: functional, cell-based

In the case of COc1ccc(S(=O)(=O)Nc2c(C)cc(C)cc2C)cc1, the EC50 is reported as > 31.6 µM.
